Test results reported in patent publication US20090155367A1, “Occlusion of Fallopian Tubes” (priority 2005, published 2009).

Legend:
[1] = system: beef muscle tissue (fillet mignon); assay: Tissue necrosis with AgNO3 bearing beads placed on beef muscle tissue; design: key: +: slight visible pitting of the tissue surface; ++: moderate pitting of tissue surface with slight blackening of the tissue; +++: significant pitting with moderate blackening of the tissue; ++++: severe pitting with complete blackening of the tissue; +++++: severe pitting with complete blackening of the tissue, spreading beyond the point of contact; −−−: no observed necrosis; details: tissue under bead on beef muscle surface
Source text: The degree of necrosis was rated as follows: slight visible pitting of the tissue surface (+); moderate pitting of tissue surface with slight blackening of the tissue (++); significant pitting with moderate blackening of the tissue (+++); severe pitting with complete blackening of the tissue (++++); severe pitting with complete blackening of the tissue, spreading beyond the point of contact (+++++); and no observed necrosis (−−−)

[2] = system: Fallopian tubes; details: even when massive tubal necrosis was achieved; cited from earlier work

O=[N+]([O-])[O-].[Ag+] [AgNO3 Crystal, silver nitrate]
Tissue Necrosis (degree of necrosis) ([1]; Time 5 minutes): +++ | Tissue Necrosis (degree of necrosis) ([1]; Time 10 minutes): ++++ | Tissue Necrosis (degree of necrosis) ([1]; Time 15 minutes): +++++ | Tissue Necrosis (degree of necrosis) ([1]; Time 20 minutes): +++++ | Fallopian tube closure after application [2]: a significant proportion of Fallopian tubes remained open
